Earlier results in patent US10864193B2, “Parasiticidal compositions comprising fipronil at high concentrations” (BOEHRINGER INGELHEIM ANIMAL HEALTH USA INC., priority 2014, dated 2020).

Settings: beagle dogs, spot-on administration, 14C radiolabeled drug

N#Cc1nn(-c2c(Cl)cc(C(F)(F)F)cc2Cl)c(N)c1[S+]([O-])C(F)(F)F (stereo not shown) [fipronil, 5-amino-3-cyano-1-(2,6-dichloro-4-trifluoromethylphenyl)-4-trifluoromethylsulfinylpyrazole]
time persistently detected in the whole skin after treatment: up to 56 days
